Values of other authors, collected in PMC5413030, “Radiochemistry on electrodes: Synthesis of an ^18F-labelled and in vivo stable COX-2 inhibitor” (PLoS ONE, 2017).

Legend:
[1] = oxidation of the methyl group

In the case of `Cc1ccc(-c2cc(C(F)(F)F)nn2-c2ccc(S(N)(=O)=O)cc2)cc1` [Celecoxib, 4-[5-(4-Methylphenyl)-3-(trifluoromethyl)-1H-pyrazol-1-yl]benzenesulfonamide], the “protein binding in plasma” value is listed as > 95% and the “metabolic behavior of celecoxib” value [1] is listed as “almost completely metabolized”.
